Source: US4620971A, “Indium-bleomycin complex” (The United States of America as represented by the …, priority 1983, dated 1986)
“Also recorded” adds a separate entry of the source.

What was measured:
Glioma 26 = experiment: Control experiment with cold InCl3, intratumor; format: in vivo, C57 BL/6 mice; details: for Host weight / Tumor size: cold, i.t.
Experimental: Two control experiments were made with cold InCl3 (InCl3 that had been stored for 4 weeks and was practically nonradioactive, pH=1-3) and cold In-BLMC (prepared with nonradioactive InCl3 by the same method as that used for ^111 In-BLMC, final pH=1.5-3.0). At a tumor age of 6 days, ip injections were given daily for 3 days: Group VII (n=5)--0.2 ml of 0.9% NaCl; Group VIII (n=5)--In-BLMC carried by 0.004 mg BLM/g tumor weight in 0.2 ml of 0.9% NaCl. At a tumor age of 13 days, single doses were given it: Group IX (n=2)--0.7 ml of 0.9% NaCl/g tumor weight; Group X (n=3)--InCl, 0.7 ml/g tumor weight.
The tumor size (product of the three dimensions in mm^3) and body weight were measured daily for 16 days following the first injection. Host weight was obtained by subtracting tumor weight from body weight, where tumor weight (g)=tumor size (d1 d2 d3, mm^3)×0.00053

glioma = experiment: Gamma images - tumor imaging in glioma-bearing mice; format: in vivo; details: 24 hr after i.p. injection
Excerpt: The 2- to 3-week-old glioma-bearing mice (tumor size: 1.0-1.5 cm) were given injections of ^111 In-BLMC, ^67 Ga-citrate, or ^111 In-BLM into the orbital sinus (or by ip injection). Images were taken with a gamma camera (Raytheon) immediately, 1, 2, 4, 24, and 48 hr after injection by using a pinhole collimator (1/4 inch diameter), with the distance of 12 cm between mouse and collimator. ^111 In-BLM, and ^111 In-BLMC were obtained according to Examples II and III; ^67 Ga-citrate was commercially obtained from New England Nuclear (NEN), Boston, Mass.

serum transferrin = experiment: Binding to serum transferrin, in vitro mixtures with plasma (gel electrophoresis); parameters: species or system mice
Experimental: Solutions of ^111 In-BLM, ^111 In-BLM-B2, ^111 -In-BLM-A2, ^111 In-BLMC and ^57 Co-BLM were analyzed by TLC using 10% ammonium acetate-methanol (1:1 v/v) as the eluant. After applying 0.2 μl of the samples, cold air was blown over the plate for 1-2 minutes. The plate was placed in a TLC cylinder containing freshly prepared eluant and the cylinder immediately covered with a glass plate. All cylinders were enclosed in a sealed plastic bag together with an open beaker containing eluant in order to maintain a saturated atmosphere. One to three, 48-hour urine samples from normal or gliomabearing mice given injections of ^111 In-BLM or one of its fractions were also analyzed by this TLC procedure. The same urine samples were also analyzed by gel electrophoresis on 5% agarose (Sigma or BRL low EEO) (Hoch, et al Anal Biochem. 78: 312-317, 1977). The aqueous gel was equilibrated against Co2 -saturated 0.02M NaHCO3 and the electrode chambers contained CO2 -saturated 0.1M NaHCO3. […] In vitro mixtures of 5 parts urine from untreated mice and 1 part of solution of ^111 In-BLM or its fraction were similarly analyzed immediately after mixing. […] The same gel electrophoresis procedure was used for ^111 In-BLM, ^111 In-BLMC, ^111 In-BLM-A2, ^111 In-BLM-B2 and ^57 Co-BLM; the dried plates were autoradiographed or analyzed with radiochromatogram scanner. […]

[1] = Whole body activity retained / excretion in normal mice; format: in vivo, C57BL/6 mice; details: ip
Experimental: Male 6-week-old C57BL/6 untreated, not tumor-bearing, mice were given intraperitoneal (ip) injectons of 30-40 μCi of ^111 InCl3, ^111 In-BLM-B2, ^111 In-BLM, ^111 In-BLMC or ^57 Co-BLM. At 1, 2, 4, 24, 48, and 72 hr after injection of the radiopharmaceutical, the animal was made to urinate and then the whole body activity was measured in a dose calibrator (FIG. 8).

[Cl][In]([Cl])[Cl] [InCl3]
Tumor size vs NaCl, comparison (Glioma 26; cold InCl3 i.t.): did not affect glioma; also recorded: the tumor sizes increased and were similar
Host weight (Glioma 26; day 0 after therapy): 20.3 ± 2.5 g
Tumor size (Glioma 26; day 0 after therapy): 1238 ± 711 mm^3
Host weight (Glioma 26; day 1 after therapy): 20.4 ± 1.6 g
Tumor size (Glioma 26; day 1 after therapy): 1741 ± 701 mm^3
Host weight (Glioma 26; day 2 after therapy): 20.0 ± 1.6 g
Tumor size (Glioma 26; day 2 after therapy): 1998 ± 559 mm^3
Host weight (Glioma 26; day 3 after therapy): 20.0 ± 1.5 g
Tumor size (Glioma 26; day 3 after therapy): 2496 ± 395 mm^3
Host weight (Glioma 26; day 4 after therapy): 20.0 ± 1.5 g
Tumor size (Glioma 26; day 4 after therapy): 2720 ± 503 mm^3
Host weight (Glioma 26; day 5 after therapy): 19.9 ± 1.6 g
Tumor size (Glioma 26; day 5 after therapy): 3333 ± 276 mm^3
Host weight (Glioma 26; day 6 after therapy): 17.9 ± 1.9 g
Tumor size (Glioma 26; day 6 after therapy): 3882 ± 501 mm^3
Host weight (Glioma 26; day 7 after therapy): 18.8 ± 2.9 g
Tumor size (Glioma 26; day 7 after therapy): 5015 ± 936 mm^3
Host weight (Glioma 26; day 8 after therapy): 19.1 ± 2.4 g
Tumor size (Glioma 26; day 8 after therapy): 5234 ± 1146 mm^3
Host weight (Glioma 26; day 9 after therapy): 20.3 ± 3.8 g
Tumor size (Glioma 26; day 9 after therapy): 5988 ± 492 mm^3

O=C([O-])CC(O)(CC(=O)[O-])C(=O)[O-].[67Ga+3] [^67 Ga-citrate]
Accumulation of radioactivity in tumor (gamma images) (glioma): higher for ^111 In-BLMC (FIG. 9e) than that for ^67 Ga-citrate (FIG. 9d)
Activity in liver and background (gamma images) (glioma): lower for ^111 In-BLMC than those for ^67 Ga-citrate or ^111 In-BLM

[Cl][111In]([Cl])[Cl] [^111 InCl3]
Binding to transferrin (serum transferrin): binds to serum transferrin in vitro
Rate of excretion (from percent activity retained) [1]: rate of excretion increased in the following order, reflecting descreasing binding capacity for transferrin: ^111 InCl3, ^111 In-BLM-B2, ^111 In-BLM, ^57 Co-BLM, ^111 In-BLMC
